Key:
[1] = target: T1, MAGL (monoacylglycerol lipase) (Mus musculus, UniProt O35678); assay: gel-based competitive ABPP with FP-TAMRA at […]; format: cell-based; parameters: gene Mgll; endogenous, mouse brain membrane proteome; details: read-out: % inhibition at 10 μM
T1 sequence (O35678 1-303): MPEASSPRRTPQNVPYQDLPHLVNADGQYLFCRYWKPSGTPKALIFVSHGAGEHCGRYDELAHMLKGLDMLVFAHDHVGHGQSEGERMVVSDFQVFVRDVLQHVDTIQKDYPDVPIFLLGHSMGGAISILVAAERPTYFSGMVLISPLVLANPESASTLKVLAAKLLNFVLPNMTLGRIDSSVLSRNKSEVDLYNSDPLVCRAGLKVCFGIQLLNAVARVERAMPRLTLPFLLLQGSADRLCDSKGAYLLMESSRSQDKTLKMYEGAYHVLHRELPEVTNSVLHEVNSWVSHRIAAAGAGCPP

[2] = target: T1, MAGL (monoacylglycerol lipase); assay: biochemical; parameters: gene Mgll; endogenous, mouse brain membrane proteome; gel-based competitive ABPP with FP-TAMRA on mouse brain membrane proteome, MAGL labelling, n=1; details: read-out: Inhibition ABPP assay (%)
Description: Subsequently, the qualified hits underwent testing in an orthogonal gel-based competitive activity-based protein profiling (ABPP) assay, a powerful technique for obtaining an initial selectivity profile of these compounds. The assay employed fluorophosphonate-tetramethylrhodamine (FP-TAMRA), a broad-spectrum activity-based probe designed to target a wide range of serine hydrolases, including endocannabinoid hydrolases like MAGL, fatty acid amide hydrolase (FAAH), and alpha/beta hydrolase domain-containing protein 6 (ABHD6)[30],[31]. […] This observation could indicate potential species differences or a short residence time for the target. A correlation between inhibitor potency in the primary substrate-based assay and the orthogonal ABPP assay was, however, noted for the majority of compounds (Fig. 1f). […] This characteristic positions it as a promising candidate for further optimization. 71 Figure S1 72 73 74 75 76 Supplementary Figure 1 – Orthogonal competitive ABPP assay for hit validation and selectivity assessment. 77 ABPP was performed on mouse brain membrane proteome using FP-TAMRA. Proteome was pre-incubated with 78 inhibitor (10 µM, 30 min), followed by incubation with FP-TAMRA (100 nM, 10 min). JZL184 was included as 79 positive control on all gels. […] Physicochemical properties (cLogP, tPSA, HBD, HBA) were calculated using ChemDraw Professional 31 16.0.

[3] = target: T2, MAGL (monoacylglycerol lipase) (Homo sapiens, UniProt Q99685); assay: fluorescent 2-AG hydrolysis assay on human MAGL-overexpressing HEK293T membranes; format: biochemical
T2 construct: gene MGLL; full-length, C-terminal FLAG-tag, HEK293T membrane fractions
T2 sequence (Q99685 whole entry): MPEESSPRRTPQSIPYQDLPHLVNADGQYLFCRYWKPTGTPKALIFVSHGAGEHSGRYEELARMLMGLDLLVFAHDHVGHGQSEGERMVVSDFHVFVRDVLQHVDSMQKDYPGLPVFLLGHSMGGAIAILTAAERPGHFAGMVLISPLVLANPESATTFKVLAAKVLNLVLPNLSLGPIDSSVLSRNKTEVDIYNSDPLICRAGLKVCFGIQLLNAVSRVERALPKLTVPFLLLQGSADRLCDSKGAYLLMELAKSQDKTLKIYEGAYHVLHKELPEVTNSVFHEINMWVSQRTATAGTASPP

inhibition at 10 µM [1]: > 25% | inhibition at 10 µM [2]: 86% | IC50 [3]: 398 nM
SMILES: CCOC(=O)C[S+]([O-])c1ccc(C(=O)N2CCN(c3cccc(C)c3)C(C)C2)cc1[N+](=O)[O-] (stereo not drawn) [compound 1, ethyl 2-((4-(3-methyl-4-(m-tolyl)piperazine-1-carbonyl)-2-nitrophenyl)sulfinyl)acetate]

— article PMC10698032, “A monoacylglycerol lipase inhibitor showing therapeutic efficacy in mice without central side effects or dependence” (Nature Communications, 2023)
